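1) Cells in 96-well plates. 2) Compound, 48 h, 5 concentrations. 3) Linear interpolation between surrounding doses. 4) Unreached endpoint = highest concentration. GI50 is the concentration that inhibits growth by half.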 Activity calls are given as the source filed them. Rule as the data show it: active = GI50 up to about 1.1 µM and inactive = higher.
Legend:
Experiment in all cases: inhibition of tumour cell growth, NCI panel, 48 h
COLO 205 = test system: COLO 205
DU-145 = test system: DU-145
HL-60 = test system: HL-60
HT-29 = test system: HT-29
Hs-578T = test system: Hs-578T
KM-20L2 = test system: KM-20L2
M14 = test system: M14
MDA-MB-231 = test system: MDA-MB-231
Malme-3M = test system: Malme-3M
NCI-H226 = test system: NCI-H226
NCI-H23 = test system: NCI-H23
NCI-H522 = test system: NCI-H522
OVCAR-5 = test system: OVCAR-5
OVCAR-8 = test system: OVCAR-8
SF-539 = test system: SF-539
SNB-19 = test system: SNB-19
SW-620 = test system: SW-620
U-251 = test system: U-251
UACC-257 = test system: UACC-257
UO-31 = test system: UO-31

SMILES | GI50 (COLO 205) | GI50 (DU-145) | GI50 (HL-60) | GI50 (HT-29) | GI50 (Hs-578T) | GI50 (KM-20L2) | GI50 (M14) | GI50 (MDA-MB-231) | GI50 (Malme-3M) | GI50 (NCI-H226) | GI50 (NCI-H23) | GI50 (NCI-H522) | GI50 (OVCAR-5) | GI50 (OVCAR-8) | GI50 (SF-539) | GI50 (SNB-19) | GI50 (SW-620) | GI50 (U-251) | GI50 (UACC-257) | GI50 (UO-31)
O=C1c2cc([N+](=O)[O-])cc3cc([N+](=O)[O-])cc(c23)C(=O)N1CCCNCCNCCCN1C(=O)c2cc([N+](=O)[O-])cc3cc([N+](=O)[O-])cc(c23)C1=O | 0.041 µM (active) | 0.453 µM (active) | 0.0166 µM (active) | 0.0201 µM (active) | 0.106 µM (active) | 0.129 µM (active) | 0.384 µM (active) | 0.414 µM (active) | 0.223 µM (active) | 0.0641 µM (active) | 0.0931 µM (active) | 0.0551 µM (active) | 0.268 µM (active) | 0.0841 µM (active) | 0.0533 µM (active) | 0.326 µM (active) | 0.073 µM (active) | 0.0395 µM (active) | 0.49 µM (active) | 0.375 µM (active)
CCCCCCCCCCCC[S+](C)C | 1.29 µM (inactive) | 1.61 µM (inactive) | 3.01 µM (inactive) | 3.41 µM (inactive) |  | 5.11 µM (inactive) | 5.14 µM (inactive) | 0.0124 µM (active) | 8.38 µM (inactive) | 1.77 µM (inactive) | 4.48 µM (inactive) | 3.7 µM (inactive) | 8.43 µM (inactive) | 4.67 µM (inactive) | 6.24 µM (inactive) | 6.59 µM (inactive) | 9.23 µM (inactive) | 5.25 µM (inactive) | 4.18 µM (inactive) | 10.1 µM (inactive)
O=Cc1ccc(-c2ccc(-c3ccc(C=O)s3)o2)s1 | 18.7 µM (inactive) | > 100 µM (inactive) | > 100 µM (inactive) | > 96.2 µM (inactive) |  | 31.3 µM (inactive) | > 100 µM (inactive) | > 100 µM (inactive) | > 100 µM (inactive) | 0.656 µM (active) | > 100 µM (inactive) | 15 µM (inactive) | 2.14 µM (inactive) | > 100 µM (inactive) | > 82.4 µM (inactive) | > 88.1 µM (inactive) | > 80.7 µM (inactive) | 1.34 µM (inactive) | 2.61 µM (inactive) | 68.5 µM (inactive)
CN1N=C(N)c2cn(C3OC(COP(=O)(O)O)C(O)C3O)c3ncnc1c23 (stereo not drawn) | 106 µM (inactive) | 1.48 µM (inactive) | 1.65 µM (inactive) | 17.3 µM (inactive) | 14.1 µM (inactive) | 58.5 µM (inactive) | 7.33 µM (inactive) | 10.9 µM (inactive) | 136 µM (inactive) | 7.41 µM (inactive) | 25.9 µM (inactive) | 2050 µM (inactive) | 9.84 µM (inactive) | 1.28 µM (inactive) | 32.4 µM (inactive) | 53.3 µM (inactive) | 91.8 µM (inactive) | 379 µM (inactive) | 152 µM (inactive) | 4.97 µM (inactive)
CC1OC(=O)C2CC3CCCCC3C(/C=C/C3CCCC(C)N3C)C12 (stereo not drawn) | > 100 µM (inactive) | > 100 µM (inactive) | > 100 µM (inactive) | > 100 µM (inactive) | > 100 µM (inactive) | 79.8 µM (inactive) | > 100 µM (inactive) | > 100 µM (inactive) | > 100 µM (inactive) | > 100 µM (inactive) | > 100 µM (inactive) | > 100 µM (inactive) | > 100 µM (inactive) | > 100 µM (inactive) | > 100 µM (inactive) | > 100 µM (inactive) | > 100 µM (inactive) | > 100 µM (inactive) | > 100 µM (inactive) | > 100 µM (inactive)
